Read-outs that look alike come from different tables or passages of the source.
Test system: edema in the hind paws (carrageenan)
Assay: carrageenan-induced hind paw edema in rats, oral administration (antiinflammatory effect)
Assay type: in vivo, Male Wistar rats
Conditions: for inhibition in vivo at 2 mg/kg: Rattus norvegicus, read-out: Inhibition (%) (after 3 hours); for Rate to Indomethacin: relative to Indomethacin = 1.00
Method: Male Wistar rats each weighing about 100 g, one group consisting of 5 to 7 animals, were orally given the compounds of the present invention and Indomethacin as a contrast, and edema was then induced in the hind paws by subcutaneous injection of 0.1 ml of 1% carrageenan one hour after the administration of the test compounds. Thereafter, the volumes of the hind paws with a predetermined lapse of time were measured by a volume differential meter.

[1] = oral, 2 mg/kg, after 3 hours, carrageenan hind paw edema, male Wistar rats
[2] = oral, 2 mg/kg, carrageenan hind paw edema, male Wistar rats

SMILES | inhibition in vivo at 2 mg/kg [1] [%] | Rate to Indomethacin [2] | inhibition in vivo at 2 mg/kg (po, 3 h) [%]
COc1ccc2c(c1)CC(=O)c1cc(C(C)C(=O)O)ccc1S2 (stereo not drawn) [Compound 2, 2(10,11-dihydro-8-methoxy-11-oxodibenzo[b,f]thiepin2-yl)-propionic acid] | 48.2 | 1.9 | –
CCOc1ccc2c(c1)CC(=O)c1cc(C(C)C(N)=O)ccc1S2 (stereo not drawn) [Compound 3, 2(10,11-dihydro-8-ethoxy-11-oxodibenzo[b,f]thiepin2-yl)-propionamide] | 40.4 | 1.2 | –
CC(C(N)=O)c1ccc2c(c1)C(=O)Cc1cc(F)ccc1S2 (stereo not drawn) [Compound 6, 2(10,11-dihydro-8-fluoro-11-oxodibenzo[b,f]thiepin2-yl)-propionamide] | 58.4 | 2.29 | –
CC(C(N)=O)c1ccc2c(c1)C(=O)Cc1ccc(F)cc1S2 (stereo not drawn) [Compound 8, 2(10,11-dihydro-7-fluoro-11-oxodibenzo[b,f]thiepin2-yl)-propionamide] | 41.9 | 1.45 | –
COc1ccc2c(c1)c(CC(=O)O)c(C)n2C(=O)c1ccc(Cl)cc1 [Indomethacin, reference compound] | – | 1.00 | 34.5
COc1ccc2c(c1)CC(=O)c1cc(C(C)C(N)=O)ccc1S2 (stereo not drawn) [Compound 1, 2(10,11-dihydro-8-methoxy-11-oxodibenzo[b,f]thiepin2-yl)-propionamide] | 67.8 | 5.2 | –
CC(C(N)=O)c1ccc2c(c1)C(=O)Cc1cc(Cl)ccc1S2 (stereo not drawn) [Compound 4, 2(8-chloro-10,11-dihydro-11-oxodibenzo[b,f]thiepin2-yl)-propionamide] | 46.8 | 1.4 | –
CC(C(=O)O)c1ccc2c(c1)C(=O)Cc1cc(F)ccc1S2 (stereo not drawn) [Compound 7, 2(10,11-dihydro-8-fluoro-11-oxodibenzo[b,f]thiepin2-yl)-propionic acid] | 66.8 | 4.56 | –
CC(C(=O)O)c1ccc2c(c1)C(=O)Cc1cc(Cl)ccc1S2 (stereo not drawn) [Compound 5, 2(8-chloro-10,11-dihydro-11-oxodibenzo[b,f]thiepin2-yl)-propionic acid] | 61.6 | 2.7 | –

Source: patent publication US4282245A, “Dibenzothiepin derivatives and a process for producing the same” (Nippon Chemiphar Co., Ltd., priority 1978, dated 1981)
